Test [1] has as its target Kappa-type opioid receptor (Homo sapiens, UniProt P41145). The test can be described thus: DRUGMATRIX: Opiate kappa (OP2, KOP) radioligand binding (ligand: [3H] Diprenorphine). The class given is cell membranes, HEK293, Membrane. The note with it: hek293; Not Active = under 50% inhibition at 10 µM.
A short description of test [2]: DRUGMATRIX: Interleukin IL-1 radioligand binding (ligand: [125I] interleukin 1beta). The class given is cell membranes, Membrane. The note with it: nih3t3; Not Active = under 50% inhibition at 10 µM.
The target in test [3] is T1, Alpha-2A adrenergic receptor (Homo sapiens, UniProt P08913). Further: in other assays of this panel Not Active means under 50% inhibition at 10 µM.
T1 sequence (P08913 whole entry): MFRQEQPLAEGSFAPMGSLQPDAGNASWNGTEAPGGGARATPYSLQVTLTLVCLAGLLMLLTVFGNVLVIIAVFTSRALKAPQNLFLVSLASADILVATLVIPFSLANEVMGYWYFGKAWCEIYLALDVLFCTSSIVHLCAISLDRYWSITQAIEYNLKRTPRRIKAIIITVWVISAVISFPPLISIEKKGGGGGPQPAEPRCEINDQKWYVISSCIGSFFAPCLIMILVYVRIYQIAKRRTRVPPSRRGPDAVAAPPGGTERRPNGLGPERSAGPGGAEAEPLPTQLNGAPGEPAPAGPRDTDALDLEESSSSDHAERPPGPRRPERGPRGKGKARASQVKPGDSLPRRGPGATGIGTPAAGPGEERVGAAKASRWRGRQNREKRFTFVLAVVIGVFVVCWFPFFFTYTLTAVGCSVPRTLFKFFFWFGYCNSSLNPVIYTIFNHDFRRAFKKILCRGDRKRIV
Type of test: cell membranes, Sf9, Membrane. The note with it: for IC50: sf9.

The target in a further test is Mu-type opioid receptor (Homo sapiens, UniProt P35372). The experiment in a line: DRUGMATRIX: Opiate mu (OP3, MOP) radioligand binding (ligand: [3H] Diprenorphine). The settings on record: cho-k1; Not Active = under 50% inhibition at 10 µM. Type of test: cell membranes, CHO-K1, Membrane.
Test [4] deals with Sodium-dependent dopamine transporter (Homo sapiens, UniProt Q01959). The test can be described thus: DRUGMATRIX: Dopamine Transporter radioligand binding (ligand: [125I] RTI-55). Type of test: cell membranes, CHO-K1, Membrane. The settings on record: cho-k1; Not Active = under 50% inhibition at 10 µM.
The target of the next test is Histamine H2 receptor (Homo sapiens, UniProt P25021). The class given is cell membranes, CHO-K1, Membrane. The settings on record: cho-k1. Further: in other assays of this panel Not Active means under 50% inhibition at 10 µM.

Results on 9 compounds are retold here after ChEMBL document CHEMBL1909046, “DrugMatrix in vitro pharmacology data”.

pIC50, pKi: −log10 of the molar value.

Usually pIC50 stands for the IC50 on a negative log10 scale, so that one unit is a factor of ten. A word on the pKi: it is the Ki on a negative log10 scale, so that one unit is a factor of ten.

Chain of Mu-type opioid receptor (P35372 whole entry): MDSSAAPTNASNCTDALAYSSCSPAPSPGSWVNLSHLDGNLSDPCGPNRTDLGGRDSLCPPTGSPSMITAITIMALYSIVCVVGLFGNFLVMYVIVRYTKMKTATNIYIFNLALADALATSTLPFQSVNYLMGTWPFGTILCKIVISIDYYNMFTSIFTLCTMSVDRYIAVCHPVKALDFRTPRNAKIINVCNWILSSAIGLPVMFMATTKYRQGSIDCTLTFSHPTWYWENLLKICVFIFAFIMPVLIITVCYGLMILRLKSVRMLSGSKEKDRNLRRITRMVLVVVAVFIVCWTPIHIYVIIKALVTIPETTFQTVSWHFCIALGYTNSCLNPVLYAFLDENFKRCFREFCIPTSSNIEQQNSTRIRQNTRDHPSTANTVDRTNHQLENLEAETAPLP
Chain of Kappa-type opioid receptor (P41145 whole entry): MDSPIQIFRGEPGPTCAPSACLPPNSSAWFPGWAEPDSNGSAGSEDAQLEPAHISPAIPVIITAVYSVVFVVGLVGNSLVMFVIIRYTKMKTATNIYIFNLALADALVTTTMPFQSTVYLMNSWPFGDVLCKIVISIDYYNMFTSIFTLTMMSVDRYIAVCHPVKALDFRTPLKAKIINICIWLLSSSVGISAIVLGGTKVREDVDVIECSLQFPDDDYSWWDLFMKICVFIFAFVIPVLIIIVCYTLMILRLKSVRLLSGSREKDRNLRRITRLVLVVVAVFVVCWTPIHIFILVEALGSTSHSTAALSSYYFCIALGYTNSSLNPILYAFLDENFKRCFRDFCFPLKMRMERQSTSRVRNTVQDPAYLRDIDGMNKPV
Chain of Histamine H2 receptor (P25021 whole entry): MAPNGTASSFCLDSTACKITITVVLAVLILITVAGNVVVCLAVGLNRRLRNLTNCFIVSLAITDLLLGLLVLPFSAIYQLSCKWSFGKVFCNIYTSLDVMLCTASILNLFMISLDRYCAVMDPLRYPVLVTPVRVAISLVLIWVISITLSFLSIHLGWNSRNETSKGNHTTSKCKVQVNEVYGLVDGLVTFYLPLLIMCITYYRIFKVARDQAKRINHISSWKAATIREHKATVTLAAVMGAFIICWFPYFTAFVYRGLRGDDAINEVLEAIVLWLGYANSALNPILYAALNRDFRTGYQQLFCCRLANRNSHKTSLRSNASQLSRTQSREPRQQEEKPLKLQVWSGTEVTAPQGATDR
Chain of Sodium-dependent dopamine transporter (Q01959 whole entry): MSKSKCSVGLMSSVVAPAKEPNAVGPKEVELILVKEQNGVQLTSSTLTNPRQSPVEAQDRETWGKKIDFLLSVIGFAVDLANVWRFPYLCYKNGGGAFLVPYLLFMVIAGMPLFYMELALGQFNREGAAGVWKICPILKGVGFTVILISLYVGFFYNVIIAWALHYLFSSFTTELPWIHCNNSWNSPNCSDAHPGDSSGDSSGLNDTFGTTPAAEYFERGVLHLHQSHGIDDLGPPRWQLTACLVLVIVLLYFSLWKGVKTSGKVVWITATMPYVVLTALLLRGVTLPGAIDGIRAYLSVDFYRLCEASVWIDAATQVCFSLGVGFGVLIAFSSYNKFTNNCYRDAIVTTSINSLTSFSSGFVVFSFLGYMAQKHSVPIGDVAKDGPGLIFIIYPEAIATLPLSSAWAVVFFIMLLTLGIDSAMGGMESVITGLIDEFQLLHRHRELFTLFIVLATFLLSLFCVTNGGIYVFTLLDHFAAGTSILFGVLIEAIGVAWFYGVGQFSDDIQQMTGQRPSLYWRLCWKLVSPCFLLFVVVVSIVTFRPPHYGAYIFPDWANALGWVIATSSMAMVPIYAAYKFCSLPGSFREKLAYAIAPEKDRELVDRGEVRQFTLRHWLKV

As for `Oc1ncnc2[nH]ncc12` [ALLOPURINOL], the IC50 entry (in test [1]; in test [2]; in test [3]; on Mu-type opioid receptor; in test [4]; at Histamine H2 receptor) was “Not Active” each time. The Ki result in test [2] is recorded as “Not Active”.

For `O=C(O)CCc1nc(-c2ccccc2)c(-c2ccccc2)o1` [OXAPROZIN], the IC50 entry (in test [1]; in test [2]; in test [3]; at Mu-type opioid receptor; in test [4]; at Histamine H2 receptor) was “Not Active” in each case. Further, the Ki entry in test [2] is reported as “Not Active”.

For `CC1(COc2ccc(CC3SC(=O)NC3=O)cc2)CCCCC1` (centres undefined) [CIGLITAZONE], the IC50 entry (in test [1]; in test [2]; on Mu-type opioid receptor; in test [4]; at Histamine H2 receptor) was “Not Active” each time. In test [2], the Ki entry is listed as “Not Active”. The pIC50 in test [3] (read-out: IC50) is 4.78. Moreover, the pKi in test [3] (read-out: Ki) is 5.21.

Consider `OC[C@H]1O[C@@H]2O[C@H]3[C@H](O)[C@@H](O)[C@@H](O[C@H]4[C@H](O)[C@@H](O)[C@@H](O[C@H]5[C@H](O)[C@@H](O)[C@@H](O[C@H]6[C@H](O)[C@@H](O)[C@@H](O[C@H]7[C@H](O)[C@@H](O)[C@@H](O[C@H]8[C@H](O)[C@@H](O)[C@@H](O[C@H]1[C@H](O)[C@H]2O)O[C@@H]8CO)O[C@@H]7CO)O[C@@H]6CO)O[C@@H]5CO)O[C@@H]4CO)O[C@@H]3CO` [BETADEX], for which the IC50 entry (in test [1]; in test [2]; in test [3]; at Mu-type opioid receptor; in test [4]; at Histamine H2 receptor) was “Not Active” in each case. For the same compound, in test [2], the Ki result was “Not Active”.

For `COc1ccc(Cl)cc1C(=O)NCCc1ccc(S(=O)(=O)NC(=O)NC2CCCCC2)cc1` [GLYBURIDE], the IC50 result (in test [1]; in test [2]; in test [3]; on Mu-type opioid receptor; in test [4]; against Histamine H2 receptor) was “Not Active” throughout. In addition, in test [2], the Ki entry is reported as “Not Active”.

`COC(=O)Nc1nc2ccc(Sc3ccccc3)cc2[nH]1` [FENBENDAZOLE]: the IC50 entry (in test [1]; in test [2]; in test [3]; on Mu-type opioid receptor; in test [4]; against Histamine H2 receptor) was “Not Active” in each case. In test [2], the Ki entry is recorded as “Not Active”.

As to `Cc1ccnc2c1NC(=O)c1cccnc1N2C1CC1` [NEVIRAPINE], the IC50 result (in test [1]; in test [2]; in test [3]; on Mu-type opioid receptor; in test [4]; against Histamine H2 receptor) was “Not Active” in each case. The Ki entry in test [2] is recorded as “Not Active”.

Regarding `NCC(CC(=O)O)c1ccc(Cl)cc1` (centres undefined) [BACLOFEN], the IC50 result (in test [1]; in test [2]; in test [3]; on Mu-type opioid receptor; in test [4]; on Histamine H2 receptor) was “Not Active” each time. The Ki entry in test [2] is listed as “Not Active”.

With `CO[C@H]1O[C@@H]2O[C@@]3(C)CC[C@H]4[C@H](C)CC[C@@H]([C@H]1C)[C@@]24OO3`, the IC50 result (in test [1]; in test [2]; in test [3]; on Mu-type opioid receptor; in test [4]; against Histamine H2 receptor) was “Not Active” in each case. In addition, the Ki entry in test [2] is “Not Active”.
